How the values were obtained:
human GPR120 = target: T1, human GPR120 (Homo sapiens, UniProt Q5NUL3); assay: Intracellular Ca2+ assay in human GPR120 stable cell line (FLIPR Calcium 4 dye, Flexstation); assay type: cell-based; conditions: HEK293 cells co-expressing Gqi5; for activity at 2.5 µM: HEK293, % activity at 2.5 µM compared to the maximal activity of the compound of Example 25 at 2.5 µM (=100%), read-out: % Activity (Ex. 25 Reference Compound); for activity at 5 µM: HEK293, % activity at 5 µM compared to the maximal activity of GW9508 at 6.7 µM (=100%), read-out: %Activity (GW9508 Reference Compound)
T1 construct: host or cells: HEK293 cells co-expressing Gqi5
T1 sequence (Q5NUL3 1-361): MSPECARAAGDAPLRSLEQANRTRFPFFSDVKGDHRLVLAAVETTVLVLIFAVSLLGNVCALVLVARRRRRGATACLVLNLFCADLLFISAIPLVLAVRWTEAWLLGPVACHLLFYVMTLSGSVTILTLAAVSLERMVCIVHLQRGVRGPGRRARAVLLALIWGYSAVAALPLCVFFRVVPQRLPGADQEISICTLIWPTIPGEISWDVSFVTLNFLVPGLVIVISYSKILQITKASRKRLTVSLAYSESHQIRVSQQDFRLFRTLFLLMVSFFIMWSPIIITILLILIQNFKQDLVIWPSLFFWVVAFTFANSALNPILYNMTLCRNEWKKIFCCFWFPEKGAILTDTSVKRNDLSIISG

C57BL/6J mice [1] = assay: Intra peritoneal glucose tolerance test (IPGTT); assay type: in vivo; conditions: 30 mg/kg oral gavage 30 min before 2g/kg glucose intra peritoneally, overnight fasted male C57BL/6J mice, incremental AUC of glucose excursion vs vehicle; for inhibition in vivo at 30 mg/kg: Mus musculus, 2 h, read-out: % reduction IPGTT at 30mg/kg
Procedure: (§1) 8-10 week old male C57BL/6J mice (Harlan) were maintained on regular chow diet from Harlan (2018 Teklad Global). On the day before the experiment mice were fasted overnight, then randomized into groups (n=10-15) to receive the tested GPR120 agonist at doses ranging from 100mg/kg or the vehicle (1% CMC, 2% TWEEN 80). Compounds were delivered orally via gavage at 10mL/kg. Blood glucose levels were measured by glucometer (Ascensia Elite XL, Bayer) at time -30 minutes before administration of compound. Blood glucose was measured again after 30 minutes (at time 0), and then the mice were dosed intra peritoneally with 2g/kg glucose at 10mL/kg. Blood glucose measurements were taken 20, 40, 60, 90 and 120 minutes after glucose administration, by glucometer (Ascensia Elite XL, Bayer).
(§2) Glucose levels were plotted against time, and the incremental area under the curve (AUC) of the glucose excursion was determined from time 0 using Graphpad Prism 5.01. Outliers were excluded using Tukey's box plot outlier test, and statistical significance of differences in AUC of compound treatment compared to vehicle was determined by non-parametric Kruskal-Wallis test with Dunn's post test.
The compounds were tested at 30 mg/kg and the levels of blood glucose were determined in the presence and absence of the tested compounds. The percentage of glucose reduction is reported. The tested compounds were selected as Examples from the exemplified compounds. […]

C57BL/6J mice [2] = assay: Oral glucose tolerance test; assay type: in vivo; conditions: 6 h fasted male C57BL/6J mice, incremental AUC vs vehicle; for % reduction AUC glucose excursion at 100mg/kg: 100 mg/kg oral gavage 30 min before 3g/kg oral glucose; for % reduction AUC glucose excursion: Sitagliptin at 1mg/kg, 3g/kg oral glucose
Procedure: as §1, with “day of” for “day before”, “fasted for 6 hours,” for “fasted overnight,”, “dosed orally” for “dosed intra peritoneally”, “with 3g/kg” for “with 2g/kg”
as §2
Tables 2 and 3 below show the mean percentage inhibition of the glucose excursion for the fifteen animals tested in each group. The compounds were tested at 100 mg/kg and the levels of blood glucose were determined in the presence and absence of the tested compounds. The percentage of glucose reduction is reported. The tested compounds were selected as examples from the exemplified compounds. […]

Compound | activity at 2.5 µM (human GPR120) [%] | inhibition in vivo at 30 mg/kg (C57BL/6J mice [1]) [%] | also measured
C[C@H](Cc1ccc(OCc2cc(Cl)cc3c2OC(C)(C)C3)c(F)c1)C(=O)O [Example 141, (R)-3-(4-((5-chloro-2,2-dimethyl-2,3-dihydrobenzofuran-7-yl)methoxy)-3-fluorophenyl)-2-methylpropanoic acid] | 143 | 30.6 | 
3-(4-((5-chloro-2,2-dimethyl-2,3-dihydrobenzofuran-7-yl)methoxy)-3-fluorophenyl)-2-methylpropanoic acid [Example 10] |  |  | %Activity (GW9508 Reference Compound) (human GPR120; % activity at 5 µM compared to the maximal activity of GW9508 at 6.7 µM (=100%)): 106.7955%; % reduction AUC glucose excursion at 100mg/kg (C57BL/6J mice [2]; Table 2): 58.1%; % reduction IPGTT at 30mg/kg (C57BL/6J mice [1]): 30.7%
CC(Cc1ccc(OCc2cc(Cl)cc3c2OC(C)(C)C3=O)c(F)c1)C(=O)O (stereo not shown) [Example 77, 3-(4-((5-chloro-2,2-dimethyl-3-oxo-2,3-dihydrobenzofuran-7-yl)methoxy)-3-fluorophenyl)-2-methylpropanoic acid] | 110 | 10.4 | 
N[C@@H](CC(=O)N1CCn2c(nnc2C(F)(F)F)C1)Cc1cc(F)c(F)cc1F [Sitagliptin, sitagliptin, reference compound] |  |  | % reduction AUC glucose excursion (C57BL/6J mice [2]; Table 2): 58.6%; % reduction AUC glucose excursion (C57BL/6J mice [2]; Table 3): 48.6%
C[C@H](Cc1ccc(OCc2cc(F)cc3c2OC(C)(C)C3)cc1)C(=O)O [Example 65, (R)-3-(4-((5-fluoro-2,2-dimethyl-2,3-dihydrobenzofuran-7-yl)methoxy)phenyl)-2-methylpropanoic acid] | 141 | 22.2 | 
Cc1c(CCC(=O)O)ccc(OCc2cc(Cl)cc3c2OC(C)(C)C3)c1C [Example 209, 3-(4-((5-chloro-2,2-dimethyl-2,3-dihydrobenzofuran-7-yl)methoxy)-2,3-dimethylphenyl)propanoic acid] | 142 | 43.6 | 
C[C@@H](Cc1ccc(OCc2cc(Cl)cc3c2OC(C)(C)C3)c(F)c1)C(=O)O [Example 142, (S)-3-(4-((5-chloro-2,2-dimethyl-2,3-dihydrobenzofuran-7-yl)methoxy)-3-fluorophenyl)-2-methylpropanoic acid] |  | 36.2 | 
CC1(C)Cc2cc(F)cc(COc3ccc4c(c3)CC[C@@H]4CC(=O)O)c2O1 [Example 178, (R)-2-(5-((5-fluoro-2,2-dimethyl-2,3-dihydrobenzofuran-7-yl)methoxy)-2,3-dihydro-1H-inden-1-yl)acetic acid] | 106 | 16.3 | 
Cc1c(CCC(=O)O)ccc(OCc2cc(F)cc3c2OC(C)(C)C3)c1C [Example 208, 3-(4-((5-fluoro-2,2-dimethyl-2,3-dihydrobenzofuran-7-yl)methoxy)-2,3-dimethylphenyl)propanoic acid] | 147 | 41.7 | 
CCOc1cc(OCc2cc(F)cc3c2OC(C)(C)C3)ccc1CCC(=O)O [Example 268, 3-(2-ethoxy-4-((5-fluoro-2,2-dimethyl-2,3-dihydrobenzofuran-7-yl)methoxy)phenyl)propanoic acid] |  | 23 | 
CC(Cc1ccc(OCc2cc(F)cc3c2OC(C)(C)C3)cc1)C(=O)O (stereo not shown) [Example 16, 3-(4-((5-fluoro-2,2-dimethyl-2,3-dihydrobenzofuran-7-yl)methoxy)phenyl)-2-methylpropanoic acid] |  | 19.4 | activity at 5 µM (human GPR120): 111%; % reduction AUC glucose excursion at 100mg/kg (C57BL/6J mice [2]; Table 3): 52.4%
CCc1cc(OCc2cc(F)cc3c2OC(C)(C)C3)ccc1CCC(=O)O [Example 134, 3-(2-ethyl-4-((5-fluoro-2,2-dimethyl-2,3-dihydrobenzofuran-7-yl)methoxy)phenyl)propanoic acid] | 151 | 30.2 | 
COc1cc(OCc2cc(F)cc3c2OC(C)(C)C3)ccc1CCC(=O)O [Example 50, 3-(4-((5-fluoro-2,2-dimethyl-2,3-dihydrobenzofuran-7-yl)methoxy)-2-methoxyphenyl)propanoic acid] | 130 | 26.2 | 
CC(Cc1ccc(OCc2cc(Cl)cc3c2OC(C)(C)C3)c(C(F)(F)F)c1)C(=O)O (stereo not shown) [Example 9, 3-(4-((5-chloro-2,2-dimethyl-2,3-dihydrobenzofuran-7-yl)methoxy)-3-(trifluoromethyl)phenyl)-2-methylpropanoic acid] |  | 19.8 | activity at 5 µM (human GPR120): 113%
CC1(C)Cc2cc(Cl)cc(COc3ccc4c(c3)CCC4CC(=O)O)c2O1 (stereo not shown) [Example 36, 2-(5-((5-chloro-2,2-dimethyl-2,3-dihydrobenzofuran-7-yl)methoxy)-2,3-dihydro-1H-inden-1-yl)acetic acid] |  |  | activity at 5 µM (human GPR120): 123%; % reduction AUC glucose excursion at 100mg/kg (C57BL/6J mice [2]; Table 3): 33.6%
CC(Cc1ccc(OCc2cc(Cl)cc3c2OC(C)(C)C3)cc1)C(=O)O (stereo not shown) [Example 13] |  |  | % reduction AUC glucose excursion at 100mg/kg (C57BL/6J mice [2]; Table 2): 61.9%
CC1(C)Cc2cc(F)cc(COc3ccc(CCC(=O)O)cc3)c2O1 [Example 132, 3-(4-((5-fluoro-2,2-dimethyl-2,3-dihydrobenzofuran-7-yl)methoxy)phenyl)propanoic acid] |  | 6.5 | 
CC1(C)Cc2cc(Cl)cc(COc3c(F)cc(C4CC4C(=O)O)cc3F)c2O1 (racemic) [Example 35, 2-(4-((5-chloro-2,2-dimethyl-2,3-dihydrobenzofuran-7-yl)methoxy)-3,5-difluorophenyl)cyclopropanecarboxylic acid] |  |  | activity at 5 µM (human GPR120): 60.1%; % reduction AUC glucose excursion at 100mg/kg (C57BL/6J mice [2]; Table 3): 27.7%
